US20220280581A1, “BENEFICIAL BACTERIA AND SECRETORY IMMUNOGLOBULIN A” (priority 2019, published 2022)

How the values were obtained:
[1] = test system: Caco-2 colonic cells co-cultured with HT29-MTX E12 cells; assay: Bacterial adherence to colonocyte co-cultures; type: cell-based, human
Method: (§1) Mammalian cell culture binding assays: Caco-2 colonic cells were co-cultured with HT29-MTX E12 cells at a ratio of 3:1 and seeded at a density of 5×10^4 cells/well in 24-well plates, maintained as described above. On day 1 post-confluence, medium was removed, the cells washed once with PBS, and DMEM without FBS or antibiotics was added prior to binding assay. Bacteria were prepared as described above, with or without SIgA and resuspended in PBS at 1×10^7 CFU/mL. 4×10^5 CFU were added to the colonocytes and the plate was centrifuged at 600×g for 5 min to ensure bacteria association with the cells. After 2 h of incubation at 37° C. in 5% CO2, medium was removed and saved for cytokine analysis. Cells were washed once with PBS, and to one set of replicates, cells were lysed with 0.5% Triton X-100 and serial dilutions of the cell suspensions were plated on MRS and incubated anaerobically at 37° C. overnight to test viability. To a second set of replicates, TRIzol (15596018; Life Technologies) was added directly to washed cells for RNA extraction.

[2] = Protection from simulated gastric digestion in vitro (pepsin, pancreatin): viability by CFU plating and live/dead flow cytometry; conditions: for Slope (CFU/% SIgA): regression of viable CFU post-digestion on SIgA association
Method: (§2) Flow cytometry and immunofluorescence: To measure binding cells were fixed using 4% w/v paraformaldehyde for 30 min, washed with PBS, then incubated with 1% bovine serum albumin (BSA) blocking buffer for 1 h. Cells were stained with 1/100 dilution SYTOT™ 9 (S34854, ThermoFisher) for live cells and goat anti-human IgA conjugated to Alexa 647 fluorophore using 1/50 dilution in 1% BSA (ab96998, Abcam). For flow cytometry, all samples were acquired and analyzed on a FACScan flow cytometer (BD Biosciences, Mountain View, Calif.) using the CellQuest software program. For live/dead analyses following in vitro digestion, cells were stained with SYTOT™ 9 (1/100 dilution) for live cells and propidium iodine (1/1000 dilution) for dead cells or cells with compromised membranes.
Protection from digestion using an in vitro model. To determine the extent to which the SIgA-glycan-mediated-bacterial complexes that included the Ig-bound secretory component (SC) where able to protect bacteria and SIgA from proteolytic degradation, an in vitro model was used. Simulated gastric digestion was performed by resuspending bacteria in 200 ul of 0.1% porcine pepsin (Sigma—Aldrich, St. Louis, Mo.) in PBS at pH 4. Samples were placed in an incubating shaker (New Brunswick Scientific, Edison, N.J.) at 140 rpm at 37° C. for 15 min. Cells were then pelleted and resuspended in 200 ul of 0.04% pancreatin (Sigma— Aldrich) in PBS pH 7, and the samples placed in the incubator shaker at 140 rpm at 37° C. for 5 min. Bacteria were pelleted and washed twice with PBS to remove residual enzymes, then evaluated for viability through CFU serial dilution and spot plating, and with live/dead flow cytometry analysis.

pooled human milk SIgA [3] = assay: Binding of SIgA to bacteria by flow cytometry; conditions: 100 μg SIgA to 1e6 cfu bacteria
pooled human milk SIgA [4] = assay: Binding of SIgA to bacteria by flow cytometry; conditions: for binding of a heterogeneous pool of SIgA: 0-1000 μg SIgA per 1e7 CFU; for association to SIgA when first grown on 2′FL: 1% 2′FL in the final media
Method: Binding of sIgA to bacteria. Bacteria from Table 1 were resuspended in 0.8% saline at a concentration of 1×10^7 CFU/mL. SIgA was then added at 0, 10, 100, 500 and 1000 μg per 1×10^7 colony forming units (CFU) of bacteria and incubated at 24° C. for 30 min. Following incubation, bacteria were pelleted at 14000×g for 4 min and washed with saline twice to remove non-adherent SIgA.
as §2

SIgA = assay: Loss of SIgA-bacteria association after deglycosylation; type: binding
[5] = test system: colonocytes (Caco-2 / HT29-MTX E12 co-culture); assay: Colonocyte barrier function and immune gene expression (RT-qPCR); type: cell-based, human; conditions: 1000 μg SIgA per 1e7 CFU vs no SIgA
Method: as §1
Mammalian cell culture RT-qPCR for gene expression: Total RNA from mammalian co-culture samples were extracted via the TRIzol method. Total RNA (1 μg) was treated with Turbo DNAse (EN0521; Thermo Fisher) to remove genomic DNA, then used for reverse transcription producing cDNA, performed according to manufacturer protocol (High Capacity Complementary DNA Reverse Transcription Kit; Applied Biosystems). Gene list and primer sequences can be found in Table 2. Real-time PCR was performed with the Quantistudio 3 qPCR thermocycler (Applied Biosystems) using SyberGreen master mix (Life Technologies). Actin and GADPH were used as house-keeping genes. Analysis was performed using Quantistudio Design and Analysis Software v.1.4.3.

| Substance | Slope (adherent CFU/% SIgA association) ([1]; substrate 2'FL) | Slope (adherent CFU/% SIgA association) ([1]; substrate all) | Slope (adherent CFU/% SIgA association) ([1]; substrate glucose) | Slope (CFU/% SIgA) ([2]; substrate lactose) | Slope (adherent CFU/% SIgA association) ([1]; substrate lactose) | Slope (CFU/% SIgA) ([2]; substrate glucose) | also measured |
| --- | --- | --- | --- | --- | --- | --- | --- |
| Bifidobacterium bifidum SC555 | 16.9 adherent CFU/% SIgA associatio | 896.4 adherent CFU/% SIgA associatio | 2288.0 adherent CFU/% SIgA associatio | – | – | – | – |
| Bifidobacterium breve SC95 | – | 13289.0 adherent CFU/% SIgA associatio | 9083.0 adherent CFU/% SIgA associatio | −106.9 | 4617.0 adherent CFU/% SIgA associatio | – | live bacteria post-digestion (live-dead flow cytometry) ([2]; 1000 μg SIgA/1e7 CFU): 57.8%; live bacteria post-digestion (live-dead flow cytometry) ([2]; no SIgA): no viable bacteria; Slope (CFU/% SIgA) ([2]; substrate LNnT): 223.1 CFU/% SIgA; Slope (adherent CFU/% SIgA association) ([1]; substrate LNnT): 19516.0 adherent CFU/% SIgA associatio; ability to bind to pooled human milk SIgA (pooled human milk SIgA [3]): 16%; increase in SIgA binding when first grown on an HMO substrate (pooled human milk SIgA [3]): 45% |
| Bifidobacterium longum ssp. longum SC596 | 37.7 adherent CFU/% SIgA associatio | 27.1 adherent CFU/% SIgA associatio | 28.5 adherent CFU/% SIgA associatio | – | −13.3 adherent CFU/% SIgA associatio | – | binding of a heterogeneous pool of SIgA (pooled human milk SIgA [4]): concentration dependent; association to SIgA when first grown on 2′FL (pooled human milk SIgA [4]): increased association to SIgA; live bacteria post-digestion (live-dead flow cytometry) ([2]; 1000 μg SIgA/1e7 CFU): 50.85%; live bacteria post-digestion (live-dead flow cytometry) ([2]; no SIgA): 29.05%; increased adherence to colonocytes with SIgA association ([1]; first grown on 2′FL): 4e3 |
| Bifidobacterium pseudocatenulatum MP80 | −50.6 adherent CFU/% SIgA associatio | 32.0 adherent CFU/% SIgA associatio | 14.2 adherent CFU/% SIgA associatio | – | – | 82548 | association to SIgA when first grown on 2′FL (pooled human milk SIgA [4]): increased association to SIgA; viable bacteria post-digestion ([2]; grown on glucose, 100 or 1000 μg SIgA/1e7 CFU): 4e6; viable bacteria post-digestion ([2]; grown on glucose, no SIgA): 2e5 CFU; slope of regression plot of viability with SIgA association ([2]; post-digestion, grown on glucose): 8.2e4 CFU per % population SIgA association; Slope (CFU/% SIgA) ([2]; substrate 2′FL): 51114 CFU/% SIgA; ability to bind to pooled human milk SIgA (pooled human milk SIgA [3]): 40.3%; increase in SIgA binding when first grown on an HMO substrate (pooled human milk SIgA [3]): 61.7% |
| Lactobacillus acidophilus NCFM | – | −3134.0 adherent CFU/% SIgA associatio | −3014.0 adherent CFU/% SIgA associatio | 38918 | −3341.0 adherent CFU/% SIgA associatio | −8952 | slope m of association to SIgA post-digestion ([2]; grown on glucose): −8.9e3 CFU/% SIgA association |
| Lactobacillus reuteri DSM | – | −4652.0 adherent CFU/% SIgA associatio | −9455.0 adherent CFU/% SIgA associatio | 47155 | 524.1 adherent CFU/% SIgA associatio | −38517 | slope m of association to SIgA post-digestion ([2]; grown on glucose): −3.9e4 CFU/% SIgA association; loss of SIgA-bacteria complexes after deglycosylation (SIgA): over 7% |
| Lactobacillus rhamnosus ATCC 7469 | 333.3 adherent CFU/% SIgA associatio | – | −138.4 adherent CFU/% SIgA associatio | −23719 | 456.6 adherent CFU/% SIgA associatio | −2121 | binding of a heterogeneous pool of SIgA (pooled human milk SIgA [4]): concentration dependent; difference post-digestion with or without SIgA ([2]; grown in 1% glucose): no significant difference; Slope (CFU/% SIgA) ([2]; substrate 2′FL): −39446 CFU/% SIgA; slope of regression plot of adherent bacteria with SIgA association ([1]; lactose-grown): 37.7 adherent CFU per % population associated with SIgA; decrease of IL-8 gene expression when first complexed with SIgA [5]: 4 fold; decrease of pIgR gene expression when first complexed with SIgA [5]: 4 fold |
